Measured values published in US9061984B2 (University of Louisville Research Foundation, Inc., priority 2008, dated 2015).
In brackets after ≈: the same amount, converted by molar mass. Where two headings read alike, the source gives them in different places.

Columns and labels:
[1] = Cytotoxicity on VERO cells (MTT), anti-T. cruzi study; details: African green monkey, VERO cells, Cytotoxicity VERO Lab B, Lab B
[2] = tested on: axenic amastigotes of L. amazonensis (strain MHOM/BR/76/LTB-012); details: Table 8b
3T3 cells = experiment: Cell growth inhibition bioassay (sulforhodamine B); type: cell-based, mouse; details: Mus musculus, NIH3T3; 48 h, SRB; read-out: GI50 in indicated cell line: 3T3
Experimental: (§1) The cytotoxicity of compounds was assayed as follows. […] Appropriate solvent controls were tested for comparison. The percent inhibition of cell growth relative to the control was evaluated colorimetrically using a sulforhodamine B dye by comparison to the control. The calorimetric procedure followed that published in Skehan et al., J. Nat. Cancer Inst., […], pp. 1107-1112 (1990) and Boyd & Paull, Drug Dev. Res., Vol. 34, pp. 91-109 (1995). […] The cell lines are: 3T3 cells are BALB/3T3 clone A31 embryonic mouse fibroblast cells; H460 cells are human large cell lung cancer cells; DU145 cells are human prostate carcinoma cells; MCF-7 cells are human breast adenocarcinoma cells; M-14 cells are human melanoma cells; HT-29 cells are human colon adenocarcinoma cells; PC3 cells are human prostate adenocarcinoma cells; K562 cells are human chronic myelogenous leukemia cells; and VERO cells are African Green Monkey kidney epithelial cells.

[3] = tested on: axenic amastigotes of L. amazonensis (strain MHOM/BR/76/LTB-012); experiment: microbe, parasite or virus in culture; details: Leishmania amazonensis, read-out: L. amazonensis IC50
[4] = tested on: Trypanosoma cruzi (Tulahuen C4); experiment: In vitro anti-T. cruzi activity (β-galactosidase CPRG colorimetric assay in VERO monolayer); type: cell-based; details: for Selectivity Index Lab B: IC50, VERO/IC50, T. cruzi; for IC50: Trypanosoma cruzi, TULAHUEN, Vero
VERO cells [5] = experiment: Cell growth inhibition bioassay (sulforhodamine B); type: cell-based, African Green Monkey; details: Chlorocebus sabaeus, Vero; 48 h, SRB; read-out: GI50 in indicated cell line: VERO
Experimental: as §1

[6] = Toxicity to peritoneal macrophages (Trypan Blue count); type: cell-based, BALB/C mouse; details: BALB/C, mouse, Cytotoxicity Macrophages IC50
Experimental: Peritoneal macrophages were prepared as follows. Non-inflammatory macrophages (10^6) were collected from each BALB/C mouse. The cells adhered at 37° C. after 2 h under 5% CO2 in a CO2 incubator. The plates were then rinsed two to three times with 0.5 mL of RPMI+buffer MOPS without fetal calf serum to eliminate non-adhering cells. The supernatant on the plates was replaced by fresh medium (RPMI+glutamine+FCS+antibiotics), 0.5 mL of medium per well. To determine the toxicity of the compounds to macrophages, dilutions of compounds were added on a part of the macrophages prepared above. […] The medium was then removed and 1 μL of sterile Trypan Blue was added. Cover glasses N° 1 were left where cells were plated and then the number of macrophages in a microscope was determined with a haemocytometer. All experiments were performed in triplicate.

M. tuberculosis H37Rv = experiment: Conventional aerobic (MABA) culture assay, luminescence MIC; type: cell-based, Mycobacterium tuberculosis; details: Mycobacterium tuberculosis, 168 h; aerobic, 7 days, H37Rv
HT-29 cells = experiment: Cell growth inhibition bioassay (sulforhodamine B); type: cell-based, human; details: Homo sapiens, HT-29; 48 h, SRB; read-out: GI50 in indicated cell line: HT-29
Experimental: as §1

DU145 cells = experiment: Cell growth inhibition bioassay (sulforhodamine B); type: cell-based, human; details: Homo sapiens, DU-145; 48 h, SRB; read-out: GI50 in indicated cell line: DU145
Experimental: as §1

K562 cells = experiment: Cell growth inhibition bioassay (sulforhodamine B); type: cell-based, human; details: Homo sapiens, K562; 48 h, SRB; read-out: GI50 in indicated cell line: K562
Experimental: as §1

H460 cells = experiment: Cell growth inhibition bioassay (sulforhodamine B); type: cell-based, human; details: Homo sapiens, NCI-H460; 48 h, SRB; read-out: GI50 in indicated cell line: H460
Experimental: as §1

MCF-7 cells = experiment: Cell growth inhibition bioassay (sulforhodamine B); type: cell-based, human; details: Homo sapiens, MCF7; 48 h, SRB; read-out: GI50 in indicated cell line: MCF-7
Experimental: as §1

M-14 cells = experiment: Cell growth inhibition bioassay (sulforhodamine B); type: cell-based, human; details: Homo sapiens, M14; 48 h, SRB; read-out: GI50 in indicated cell line: M-14
Experimental: as §1

VERO cells [7] = experiment: Cytotoxicity on VERO cells (MTT), anti-T. cruzi study; details: Chlorocebus sabaeus, Vero, read-out: IC50 VERO, Table 3
[8] = Lab B, read-out: T. cruzi IC50 Lab B
[9] = Lab A, read-out: T. cruzi IC50 Lab A

Row | SMILES | IC50 [1] [µg/mL] | Selectivity Index [2] | GI50 (3T3 cells) [µg/mL] | IC50 [3] [µM] | Selectivity Index Lab B ([4]; Lab B) | IC50 [4, 8] [µg/mL] | GI50 (VERO cells [5]) [µg/mL] | IC50 at 48 h [6] [µM] | MIC (M. tuberculosis H37Rv) [µg/mL] | GI50 (HT-29 cells) [µg/mL] | GI50 (DU145 cells) [µg/mL] | GI50 (K562 cells) [µg/mL] | GI50 (H460 cells) [µg/mL] | GI50 (MCF-7 cells) [µg/mL] | GI50 (M-14 cells) [µg/mL] | IC50 [4, 9] [µg/mL] | IC50 (VERO cells [7]) [µM] | IC50 ([4]; Table 3, read-out: IC50 T. cruzi) [µM]
1 | C(=N/Nc1ncnc2sc3c(c12)CCCC3)/c1cccc2ccccc12 [II-02] | 1 (≈ 2.79 µM) | 1.3 | 6 (≈ 16.7 µM) | 4.6 | 0.2 | 4.7 | 4.3 (≈ 12 µM) | 6 | > 100 | 2.2 (≈ 6.14 µM) | 8.6 (≈ 24 µM) | 1.7 (≈ 4.74 µM) | 7.1 (≈ 19.8 µM) | 2.3 (≈ 6.42 µM) | 6.6 (≈ 18.4 µM) | – | – | –
2 | C(=N/Nc1ncnc2sc3c(c12)CCCC3)/c1ccc2ccccc2c1 [II-03] | 5 (≈ 13.9 µM) | 0.4 | 10 (≈ 27.9 µM) | 14 | 1.1 | 4.8 | 2.9 (≈ 8.09 µM) | 5.7 | > 100 | 6.9 (≈ 19.2 µM) | 8.7 (≈ 24.3 µM) | 2.2 (≈ 6.14 µM) | 7.4 (≈ 20.6 µM) | 3.3 (≈ 9.21 µM) | 12.6 (≈ 35.1 µM) | – | – | –
3 | CC(C)c1ccc(/C=N\Nc2ncnc3sc4c(c23)CCCC4)cc1 [II-07] | 1 (≈ 2.85 µM) | 2.3 | 3.3 (≈ 9.42 µM) | 1.3 | 0.5 | 1.8 | 2.1 (≈ 5.99 µM) | 3 | > 100 | 2.1 (≈ 5.99 µM) | 3.8 (≈ 10.8 µM) | 1.4 (≈ 3.99 µM) | 2.1 (≈ 5.99 µM) | 1.8 (≈ 5.14 µM) | 6.2 (≈ 17.7 µM) | 0.9 | – | –
4 | CC(C)(C)c1ccc(/C=N\Nc2ncnc3sc4c(c23)CCCC4)cc1 [II-08] | 5 (≈ 13.7 µM) | 3.8 | 8.4 (≈ 23 µM) | 0.6 | 1.2 | 4.1 | 2.5 (≈ 6.86 µM) | 2.4 | > 100 | 5.7 (≈ 15.6 µM) | 8 (≈ 21.9 µM) | 2.3 (≈ 6.31 µM) | 2.3 (≈ 6.31 µM) | 2.3 (≈ 6.31 µM) | 11 (≈ 30.2 µM) | 1.3 | – | –
5 | C(=N/Nc1ncnc2sc3c(c12)CCCC3)/c1ccc2c(c1)OCO2 [II-12] | 6 (≈ 17 µM) | 0.6 | > 93.8 | 10.4 | 0.7 | 8 | > 93.8 | 5.7 | > 100 | > 93.8 | > 93.8 | > 93.8 | > 93.8 | 41.4 (≈ 117 µM) | > 93.8 | 2.3 | – | –
6 | COc1ccc(/C=N\Nc2ncnc3sc4c(c23)CCCC4)c(OC)c1 [II-13] | 12 (≈ 32.6 µM) | 4.3 | 7.3 (≈ 19.8 µM) | 12.2 | 1.8 | 6.8 | 17.7 (≈ 48 µM) | 53 | > 100 | 7.4 (≈ 20.1 µM) | 7.4 (≈ 20.1 µM) | 2.9 (≈ 7.87 µM) | 10.9 (≈ 29.6 µM) | 7.8 (≈ 21.2 µM) | 34.8 (≈ 94.4 µM) | – | – | –
7 | C=CCOc1cc(/C=N\Nc2ncnc3sc4c(c23)CCCC4)cc(OCC=C)c1Br [II-17] | 3 (≈ 6.01 µM) | 0.7 | < 0.98 | 2.6 | 0.4 | 7.7 | 2.2 (≈ 4.4 µM) | 1.7 | > 100 | 1.9 (≈ 3.8 µM) | < 0.98 | 2 (≈ 4 µM) | 1.6 (≈ 3.2 µM) | 1.9 (≈ 3.8 µM) | 6.4 (≈ 12.8 µM) | 10.2 | – | –
8 | CC1CS(=O)(=O)CCN1/N=C/c1ccc([N+](=O)[O-])o1 (stereo not drawn) [Nifurtimox, reference compound] | – | – | – | – | – | – | – | – | – | – | – | – | – | – | – | – | 80.1 | 0.52
